# PMC10530208 (Cell reports, 2023)
# Where a name gives a salt, the structure may show the parent alone.
# Tests used:
# C. parvum [1] = experiment: C. parvum growth assay in HCT-8 cells: indole analog screen and dose-response; type: cell-based, Cryptosporidium parvum; details: for Effect on Cp infection in the indole analog screen: 1 mM, HCT-8 cells; for EC50: Cryptosporidium parvum, HCT-8, 24 h, read-out: Cp EC50
# C. parvum [2] = experiment: Initial screen of metabolites on C. parvum growth in HCT-8 cells; type: cell-based, Cryptosporidium parvum; details: 1 mM or 0.1 mM, 24 hpi
# Cp mitosome = experiment: MitoTracker staining of indole treated C. parvum; type: cell-based, Cryptosporidium parvum; details: indole 1.76 mM, 7CNI 1 mM, CCCP 10 μM; 2 h or 24 h
# C. parvum [3] = experiment: Sliding window treatment with indoles; type: cell-based, Cryptosporidium parvum; details: EC90 concentration
# C. parvum [4] = experiment: Air-liquid interface; type: cell-based, Cryptosporidium parvum; details: for Time after washout to significant recovery in Cp growth / Cp growth recovery after washout: ALI; for Time after washout to significant recovery in Cp growth: treated at EC50 for two days; for EC50 / EC90: Cryptosporidium parvum; for EC50: read-out: Cp EC50 in ALI cultures; for EC90: read-out: Cp EC90 in ALI cultures
# [5] = test system: C. parvum-infected GKO mice; experiment: Metabolite treatment of C. parvum-infected GKO mice; type: in vivo, mouse; details: 50 mg/kg oral gavage twice daily for 7 days
# HCT-8 cells [6] = experiment: Seahorse metabolic assays; type: cell-based, human; details: 18 h; indole 0.5-2 mM, 7CNI 0.25-1 mM
# C. parvum [7] = experiment: Antibody and EdU labeling of C. parvum life cycle stages; type: cell-based, Cryptosporidium parvum; details: EC90 concentration; for Effect on Cp life cycle progression: first 24 hpi
# HCT-8 cells [8] = experiment: Host nuclei ratio with mitochondrial inhibitors; type: cell-based, human; details: 40 μM and 20 μM
# C. parvum [9] = experiment: C. parvum growth assay with mitochondrial inhibitors; type: cell-based, Cryptosporidium parvum; details: read-out: Cp EC50
# HCT-8 cells [10] = experiment: Initial metabolite screen: host cell numbers; type: cell-based, human; details: 1 mM
# [11] = test system: HCT-8 AhR WT cells or AhR KO cells; experiment: Seahorse XF Cell Energy Phenotype Test on HCT-8 AhR WT and AhR KO cells; type: cell-based, human; details: 18 h; 0.5, 1 or 2 mM; both HCT-8 WT and AhR KO cells
# C. parvum [12] = experiment: C. parvum growth assay in HCT-8 AhR WT vs AhR KO cell lines; type: cell-based, Cryptosporidium parvum; details: 1 mM; 24 h
# HCT-8 cells [13] = experiment: Transcriptomics; type: cell-based, human; details: 880 μM; 4 or 12 h; FDR p < 0.05, absolute fold change > 2
structure (smiles),measurement,setting,value
Cc1c[nH]c2ccccc12 [3-methylindole],Effect on Cp infection in the indole analog screen,C. parvum [1],did inhibit Cp
Oc1cccc2[nH]ccc12 [4-Hydroxyindole],Effect on Cp growth in the primary metabolite screen,C. parvum [2],significantly inhibited Cp growth
same,EC50,C. parvum [1],1260 µM
O=C(O)Cc1c[nH]c2ccc(O)cc12 [5-Hydroxyindole-3-acetic acid],Effect on Cp growth in the primary metabolite screen,C. parvum [2],no effect on Cp
N#Cc1cccc2cc[nH]c12 [7-cyanoindole],MitoTracker staining of Cp mitosomes,Cp mitosome,significantly decreased MitoTracker staining of Cp mitosomes
same,"Effect on Cp growth, treatment 0–4 hpi only",C. parvum [3],neither indole nor 7CNI inhibited Cp growth
same,"Effect on Cp infection, treatment started 4 hpi (4–24 hpi)",C. parvum [3],significantly inhibited Cp infection
same,Time after washout to significant recovery in Cp growth,C. parvum [4],4 days
same,EC50,C. parvum [4],379 µM
same,EC90,C. parvum [4],688 µM
same,Body weight,[5],weighed significantly more than vehicle- or indole-treated mice 5 and 7 dpi
same,Survival rate,[5],did not significantly increase survival rate
same,ATP production rate by glycolysis,HCT-8 cells [6],remained similar between all treatments
same,ATP production rate by the mitochondria,HCT-8 cells [6],significant reduction in ATP production rate by the mitochondria
same,Effect on Cp life cycle progression,C. parvum [7],delayed progression through sequential life cycle stages
"N#CC(C#N)=NNc1cccc(Cl)c1 [CCCP, carbonyl cyanide m-chlorophenyl hydrazone]",MitoTracker staining of Cp mitosomes,Cp mitosome,decreases MitoTracker staining in the Cp mitosome
same,Host toxicity,HCT-8 cells [8],observed host toxicity
same,EC50,"C. parvum [9]; HCT-8 cells, 24 h",5 µM
"C[C@H](CCC(=O)O)[C@H]1CC[C@H]2[C@@H]3CC[C@@H]4C[C@H](O)CC[C@]4(C)[C@H]3C[C@H](O)[C@]12C [Deoxycholate, sodium deoxycholate]",Host toxicity in the initial screen,HCT-8 cells [10],significant host toxicity at 1 mM
same,Effect on Cp growth in the primary metabolite screen,C. parvum [2],significantly inhibited Cp growth
C[C@H](CCC(=O)O)[C@H]1CC[C@H]2[C@@H]3CC[C@@H]4C[C@H](O)CC[C@]4(C)[C@H]3C[C@H](O)[C@]12C [Deoxycholic acid],Host toxicity in the initial screen,HCT-8 cells [10],significant host toxicity at 1 mM
same,Effect on Cp growth in the primary metabolite screen,C. parvum [2],significantly inhibited Cp growth
NC(=O)Cc1c[nH]c2ccccc12 [Indole-3-acetamide],Effect on Cp infection in the indole analog screen,C. parvum [1],exceptions
O=C(O)CCc1c[nH]c2ccccc12 [Indole-3-propionic acid],Effect on Cp infection in the indole analog screen,C. parvum [1],did inhibit Cp
c1ccc2[nH]ccc2c1 [Indole],MitoTracker staining of Cp mitosomes,Cp mitosome,significantly decreased MitoTracker staining of Cp mitosomes
same,"Effect on Cp growth, treatment 0–4 hpi only",C. parvum [3],neither indole nor 7CNI inhibited Cp growth
same,"Effect on Cp infection, treatment started 4 hpi (4–24 hpi)",C. parvum [3],significantly inhibited Cp infection
same,Effect on Cp infection of pre-treatment of host cells,C. parvum [3]; 20 h before infection,did not affect subsequent Cp infection
same,Mitochondrial basal and stressed respiratory rate,[11],significantly impaired in a dose-dependent manner
same,Cp growth recovery after washout,C. parvum [4]; treated at 2 × EC90 for two days,no recovery was observed
same,Time after washout to significant recovery in Cp growth,C. parvum [4],2 days
same,Cp growth recovery after washout,C. parvum [4]; treated at EC90 for two days,Some growth recovery (though not significant)
same,EC50,C. parvum [4],577 µM
same,EC90,C. parvum [4],1890 µM
same,Cp sensitivity to inhibition in AhR KO cells,C. parvum [12],remained sensitive
same,Effect on Cp growth in the primary metabolite screen,C. parvum [2],significantly inhibited Cp growth
same,Downregulated genes,HCT-8 cells [13],11 genes
same,Genes significantly differentially expressed after treatment,HCT-8 cells [13],68 genes
same,Upregulated genes,HCT-8 cells [13],57 genes
same,Cp oocysts shed in the feces,[5],no significant effect on Cp infection in vivo
same,Median survival time,[5],17 dpi
same,EC50,C. parvum [1],411 µM
same,ATP production rate by glycolysis,HCT-8 cells [6],remained similar between all treatments
same,ATP production rate by the mitochondria,HCT-8 cells [6],significant reduction in ATP production rate by the mitochondria
same,Basal and maximal levels of mitochondrial respiration (OCR),HCT-8 cells [6],significantly reduced both basal levels and maximal levels of mitochondrial respiration
same,Spare respiratory capacity,HCT-8 cells [6],diminished
same,Total ATP production rate,HCT-8 cells [6],lower total ATP production rate
same,Morphology of mature merozoites,"C. parvum [7]; 22 h, 1E12 labeling",did not observe any obvious morphological defects in mature merozoites
same,Effect on Cp life cycle progression,C. parvum [7],delayed progression through sequential life cycle stages
C[C@H](CCC(=O)O)[C@H]1CC[C@H]2[C@@H]3CC[C@@H]4C[C@H](O)CC[C@]4(C)[C@H]3CC[C@]12C [Lithocholic acid],Host toxicity in the initial screen,HCT-8 cells [10],significant host toxicity at 1 mM
same,Effect on Cp growth in the primary metabolite screen,C. parvum [2],significantly inhibited Cp growth
CCCCC[C@H](O)/C=C/[C@H]1[C@H](O)CC(=O)[C@@H]1C/C=C\CCCC(=O)O [Prostaglandin E2],Host toxicity in the initial screen,HCT-8 cells [10],significant host toxicity at 1 mM
Cc1ncc(CO)c(C=O)c1O [Pyridoxal hydrochloride],Effect on Cp growth in the primary metabolite screen,C. parvum [2],significantly inhibited Cp growth
same,EC50,C. parvum [1],213 µM
same,Fold Selectivity (HCT-8 EC50 divided by Cp EC50),C. parvum [1]; host value from nuclei count,44.6 fold
O=C(O)C(O)Cc1c[nH]c2ccccc12 (stereo not drawn) [indole-3-lactic acid],Effect on Cp infection in the indole analog screen,C. parvum [1],exceptions
CC[C@H]1/C=C/C=C/C[C@@H](C)[C@H](O)[C@@](C)(O)C(=O)[C@@H](C)[C@H](O)[C@@H](C)C(=O)[C@@H](C)[C@H](O)[C@@H](C)/C=C/C(=O)O[C@@H]2[C@H](C)[C@H](CC1)O[C@]1(CC[C@H](C)[C@H](C[C@@H](C)O)O1)[C@H]2C [oligomycin],EC50,"C. parvum [9]; Cryptosporidium parvum, HCT-8, 24 h",20.6 µM
